These results are taken from patent US9096852B2, “Inhibitors of micro-RNAs for use for preventing and/or attenuating skin ageing and/or for hydrating skin” (CHANEL PARFUMS BEAUTE, priority 2010, dated 2015).

“Also recorded” adds a separate entry of the source.

For data set [1], the system named is Mir 181a. The data set is described as follows: Screening of active compounds: miR-181a expression by real time PCR in keratinocytes. The data set is classed as cell-based, human. The conditions noted are these: 48 hours. On the procedure:
Neonatal Human Primary Epidermal Keratinocytes (Hekn, Cascade, Invitrogen, Carlsbad, Calif., USA) were cultured in EpiLife medium added with HKGS growth supplements (Cascade). Cells were constantly kept subconfluent in order to avoid triggering of a differentiation process. Cells were passaged usually once a week, at each passage the harvested cells number and seeded cell number were recorded in order to calculate the population doublings occurring between passages and the population doubling time. At passage 2 300.000 keratinocytes were plated in 60 mm dishes. The day after the cells were treated with the compounds at the indicated concentration for 48 hours without changing of the media. Cells were collected by scraping in medium. Cells were centrifuged at 800 g for 5 min and RNA was extracted. Total RNA from cells was isolated using […] Isolation Kit (Ambion) by following the manufacturer's protocol for total RNA extraction. Total RNA was quantified using a NanoDrop Spectophotometer (Thermo Scientific, Delaware, USA) and RNA quality was controlled on an agarose gel. […] The expression of each gene and miR was defined from the threshold cycle (Ct), and relative expression levels were calculated by using the 2-ΔΔCt method after normalization with reference to the expression of the housekeeping gene U18. […]
A general note: Real-time PCR tracks product formation cycle by cycle.

Data set [2] relates to Mir 130a. Nature of the data set: Screening of active compounds: miR-130a expression by real time PCR in keratinocytes. The data set is classed as cell-based, human. The conditions noted are these: 48 hours. The method, then:
(§1) Neonatal Human Primary Epidermal Keratinocytes (Hekn, Cascade, Invitrogen, Carlsbad, Calif., USA) were cultured in EpiLife medium added with HKGS growth supplements (Cascade). Cells were constantly kept subconfluent in order to avoid triggering of a differentiation process. Cells were passaged usually once a week, at each passage the harvested cells number and seeded cell number were recorded in order to calculate the population doublings occurring between passages and the population doubling time. At passage 2 300.000 keratinocytes were plated in 60 mm dishes. The day after the cells were treated with the compounds at the indicated concentration for 48 hours without changing of the media. Cells were collected by scraping in medium. Cells were centrifuged at 800 g for 5 min and RNA was extracted.
Total RNA from cells was isolated using mirVana mirRNA Isolation Kit (Ambion) by following the manufacturer's protocol for total RNA extraction. Total RNA was quantified using a NanoDrop Spectophotometer (Thermo Scientific, Delaware, USA) and RNA quality was controlled on an agarose gel. For microRNA detection, RNA was reverse transcribed using TaqMan MicroRNA Reverse Transcription kit and qRT-PCR was performed with TaqMan universal master mix (Applied Biosystem) and specific primers for miR-130a, -138, -181a and -191. U18 was used as an internal control (Applied Biosystem). The expression of each gene and miR was defined from the threshold cycle (Ct), and relative expression levels were calculated by using the 2-ΔΔCt method after normalization with reference to the expression of the housekeeping gene U18.
The following compounds were tested according to the process of the invention, and the following results were obtained: […]

Data set [3] concerns Mir 191. The data set is described as follows: Screening of active compounds: miR-191 expression by real time PCR in keratinocytes. The data set is classed as cell-based, human. Conditions: 48 hours, compound at 6. 10-5%. On the procedure:
as §1
Total RNA from cells was isolated using mirVana mirRNA Isolation Kit (Ambion) by following the manufacturer's protocol for total RNA extraction. Total RNA was quantified using a NanoDrop Spectophotometer (Thermo Scientific, Delaware, USA) and RNA quality was controlled on an agarose gel. […] The expression of each gene and miR was defined from the threshold cycle (Ct), and relative expression levels were calculated by using the 2-ΔΔCt method after normalization with reference to the expression of the housekeeping gene U18. […]

The subject of data set [4] is proliferating keratinocytes. Nature of the data set: Proliferation by BrdU incorporation (Click-iT EdU flow cytometry) after miR over-expression. The data set is classed as cell-based. The conditions noted are these: over-expression in proliferating human primary keratinocytes. On the procedure:
(§2) The human primary keratinocytes described in Example 1 are used in this example. Human primary keratinocytes were cultured in EpiLife medium with HKGS growth supplements (Cascade). […] 16 hrs after transfection, the medium was removed and replaced with fresh medium.
Methods used to evaluate cell proliferation are generally based on incorporation of bromodeoxyuridine (BrdU) during DNA synthesis. The Click-iT™ EdU flow cytometry assay kit is a novel alternative to BrdU assay (Molecular Probes, Eugene, Oreg., USA). […] Briefly, cells were incubated with EdU for 4 hrs. After incubation, samples were fixed, permeabilized and stained according to the manufacturer's protocol. Cell cycle was analysed using a FACSCalibur flow cytometer (BD Biosciences, San Jose, Calif., USA). Fifteen thousand events were evaluated using the Cell Quest (BD) and Modfit LT (Verity Software; BD) programs.

Data set [5] deals with Sirt-1 3′UTR miR-181a del. Nature of the data set: Luciferase reporter assay, Sirt-1 3′UTR miR-181a del, HEK 293E cells. The data set is classed as cell-based, human. The conditions noted are these: Sit 3′UTR miR-181a del reporter, 24 hours after transfection. On the procedure: On the other hand, from this wild type sequence, the miR-181a predicted target site (7 bp, UGAAUGU) was deleted by PCR using the following overlapping primers:
Therefore, the SirT1 3′UTR miR-181a del is obtained.
(§3) 2×10^5 HEK 293E cells were seeded in 12 well dishes 24 hours before transfection. Cells were transfected using Lipofectamine 2000 (Invitrogen) with 100 ng of pGL3 vectors (i.e. with Sirt-1 3′UTR wt or Sirt-1 3′UTR miR-181a del), 12 pmol of pre-miR-181a or pre-miR scramble sequence (Ambion), and 10 ng of Renilla luciferase pRL-CMV vector. Luciferase activities of cellular extracts were measured 24 hours after transfection, by using a Dual Luciferase Reporter Assay System (Promega); light emission was measured over 10 seconds using an OPTOCOMP I luminometer. Efficiency of transfection was normalised using Renilla luciferase activity.
(A reporter such as luciferase makes a cellular process visible.)

Data set [6] concerns proliferating keratinocytes. Nature of the data set: Senescence-associated β-galactosidase staining after miR over-expression. Conditions: over-expression in proliferating human primary keratinocytes. The data set is classed as cell-based. The method, then: as §2
Cells were plated in 6-well culture plates, washed with PBS, and fixed with 2% formaldehyde/0.2% glutaraldehyde in PBS for 5 minutes. After another washing step with PBS, cells were incubated with β-galactosidase staining solution (150 mmol/L NaCl, 2 mmol/L MgCl2, 5 mmol/L potassium ferricyanide, 5 mmol/L potassium ferrocyanide, 40 mmol/L citric acid, 12 mmol/L sodium phosphate, pH 6.0, containing 1 mg/mL 5-bromo-4-chloro-3-indolyl-β-Dgalactoside [X-gal]) for 24 hours at 37° C. The reaction was stopped by replacing the staining solution with 70% glycerol.

Data set [7] relates to SirT1 protein. The data set is described as follows: Western blot of SirT1 in transfected human keratinocytes. The conditions noted are these: versus scrambled sequence (Ctrl). The data set is classed as cell-based. The method, then: Human primary keratinocytes were cultured in EpiLife medium with HKGS growth supplements (Cascade) and treated with CaCl2 1.2 mM in order to induce the differentiation process. Differentiated cells were harvested after 7 days of treatment for microRNA levels analysis. Human primary keratinocytes were transfected with human pre-miR-138, anti-miR-138 and Cy3-labeled negative control (Ambion, Texas, USA) using the SiPORT neoFX transfection agent (Ambion) according to manufacturer protocols. 16 hrs after transfection, the medium was removed and replaced with fresh medium.
(§4) Total cell extracts were resolved on a SDS polyacrylamide gel, blotted on a Hybond P PVDF membrane (G&E Healthcare, UK). Membranes were blocked with PBST 5% non fat dry milk, incubated with primary antibodies for 2 h at room temperature, washed and hybridized for 1 h at room temperature using the appropriate horseradish peroxidase-conjugated secondary antibody (rabbit and mouse, BioRad, Hercules, Calif., USA). Detection was performed with the ECL chemiluminescence kit (Perkin Elmer, Waltham, Mass., USA).
anti-Sirt-1 (Abcam, Cambridge, United Kingdom; 1/500 dilution), anti-β actin (Sigma, St Louis, Minn., USA; 1/5000 dilution), were used.
The human primary keratinocytes described in Example 1 are used in this example. […]
In general terms: Immunoblotting shows a protein as a band on a membrane.

Data set [8] deals with Sirt-1 3′UTR wt. Nature of the data set: Luciferase reporter assay, Sirt-1 3′UTR wt, HEK 293E cells. The data set is classed as cell-based, human. The conditions noted are these: Sirt-1 3′UTR wt reporter, 12 pmol pre-miR, 24 hours after transfection. On the procedure: Human Sirt-1 3′UTR was amplified by PCR from the first nucleotide after stop codon to the last nucleotide before polyadenylation signal from human genomic DNA using the following primers:
The 1940 bp fragment (i.e. pSirT1 3′UTR wt), after SpeI restriction, was ligated to a compatible XbaI linearized pGL3 Control vector (Promega, Madison, Wis., USA).
as §3, with “miR-138” for “miR-181a”, “pre-miR-138” for “pre-miR-181a”
2×10^5 HEK 293E cells were seeded in 12 well dishes 24 hours before transfection. […] Luciferase activities of cellular extracts were measured 24 hours after transfection, by using a Dual Luciferase Reporter Assay System (Promega); light emission was measured over 10 seconds using an OPTOCOMP I luminometer. […]

In data set [9] the test system is CDK6 3′UTR wt. The data set is described as follows: Luciferase reporter assay, CDK6 3′UTR wt, HEK 293E cells. The data set is classed as cell-based. Conditions: CDK6 3′UTR wt reporter, 24 hours after transfection. On the procedure: 2×10^5 HEK 293E cells were seeded in 12 well dishes 24 hours before transfection. Cells were transfected using Lipofectamine 2000 (Invitrogen) with 100 ng of pGL3 vectors 12 pmol of pre-miR-191 or pre-miR scramble sequence (Ambion), and 10 ng of Renilla luciferase pRL-CMV vector. Luciferase activities of cellular extracts were measured 24 hours after transfection, by using a Dual Luciferase Reporter Assay System (Promega); light emission was measured over 10 seconds using an OPTOCOMP I luminometer. Efficiency of transfection was normalised using Renilla luciferase activity.

For data set [10], the system named is CDK6 protein. Nature of the data set: Western blot of CDK6 in transfected human keratinocytes. The data set is classed as cell-based. The conditions noted are these: versus scrambled sequence (Ctrl). On the procedure:
The human primary keratinocytes described in Example 1 are used in this example. Human primary keratinocytes were cultured in EpiLife medium with HKGS growth supplements (Cascade) and treated with CaCl2 1.2 mM in order to induce the differentiation process. Differentiated cells were harvested after 7 days of treatment for microRNA levels analysis. Human primary keratinocytes were transfected with human pre-miR-191, anti-miR-191 and Cy3-labeled negative control (Ambion, Texas, USA) using the SiPORT neoFX transfection agent (Ambion) according to manufacturer protocols. 16 hrs after transfection, the medium was removed and replaced with fresh medium.
as §4
Polyclonal anti-CDK-6 (Santa Cruz, sc-177, dilution 1:2000), anti-β actin (Sigma, St Louis, Minn., USA; 1/5000 dilution), were used.

Regarding `CCCCC[C@H](O)CC(=O)CCc1ccc(O)c(OC)c1` [Gingerol 6], in [1] (compound at 6. 10-5%), the “inhibition of Mir 181a expression” value was >20 (29%). Also, the “inhibition of Mir 130a expression” value in [2] (compound at 6. 10-5%) is on record as >20 (37%). For the same molecule, in data set [3], the “inhibition of Mir 191 expression” value is >20 (24%).

On to `Oc1ccc(C=Cc2cc(O)cc(O)c2)cc1` [Resveratrol], for which the “inhibition of Mir 181a expression” value in data set [1] (compound at 4. 10-4%) is reported as >20 (21%). In [2] (compound at 4. 10-4%), the “inhibition of Mir 130a expression” value was >20 (25%).

As for `COC(=O)C1Cc2cc(OC(C)=O)c(OC(C)=O)cc2N1C(C)=O` (centres unmarked) [Tryacetyl-leukodopachrome methyl ester], in [2] (compound at 10-3%), the “inhibition of Mir 130a expression” value is recorded as 20 (10-3%).

Consider “pre-miR-181a: human pre-miR-181a (Ambion) transfected to over-express miR-181a (SEQ ID No. 3) [reference compound]”, for which the “proliferation as evaluated by BrdU incorporation” value in data set [4] (listed as miR181a) is “significantly diminished”; in data set [4] (listed as miR-181a), “strong effect on inhibition of proliferation”. Also, the values for the luciferase activity in data set [5] and in data set [8] were 0.93±0.09 fold over control and 0.648±0.1 fold over control, respectively. In [6] (listed as miR-181a), the “senescence as evaluated by SA-β-galactosidase staining” value is “sufficient per se to induce senescence; also recorded: significantly increase”. Moreover, the “SirT1 protein level (Western blot)” value in [7] was “markedly diminished”.

B1: pre-miR-191: human pre-miR-191 (Ambion) transfected to over-express miR-191 (SEQ ID No. 4) (nucleic acid)
chain: CGGCUGGACAGCGGGCAACGGAAUCCCAAAAGCAGCUGUUGUCUCCAGAGCAUUCCAGCUGCGCUUGGAUUUCGUCCCCUGCUCUCCUGCCU
modifications: precursor form, further chemistry not given here
In turn, B1 gave a luciferase activity in [9] of 0.78±0.1 fold over control. The “proliferation as evaluated by BrdU incorporation” value in [4] (listed as miR191) was “significantly diminished”; in data set [4] (listed as miR-191), “strong effect on inhibition of proliferation”. For the same molecule, in data set [6] (listed as miR-191), the “senescence as evaluated by SA-β-galactosidase staining” value is recorded as “significantly increase; also recorded: sufficient per se to induce senescence”. The “CDK6 protein level (Western blot)” value in data set [10] is “markedly diminished”.
